According to patent publication US11820737B2, “Generation of peroxyhydroxycarboxylic acid and the use thereof” (ECOLAB USA INC., priority 2020, dated 2023):
Where “and” joins values, the source holds several entries; their conditions need not be identical. Equal entries are not always repeated.

Legend:
[1] = Kinetic instability of peroxylactic acid generated through equilibrium reaction of lactic acid and hydrogen peroxide (FIG. 4); type: physicochemical; settings: generated through equilibrium between lactic acid and H2O2, FIG. 4
Method: Comparison of Lactide Ester to Lactic Acid Precursor to Generate Peroxylactic Acid. The equilibrium reaction using lactic acid reagent for generating perlactic acid was performed to show the distinct advantages of the methods of generation according to the invention. […] It is also known that the reaction results in additional byproducts—which may not be suitable for various applications of use.
This makes it commercially not feasible to deliver the compositions for end application at customer locations.

[2] = tested on: Listeria monocytogenes ATCC 49594; experiment: Food contact suspension test (FCS, AOAC 960.09); type: cell-based; settings: 30 second
Method: (§1) Additional antimicrobial efficacy of generated peroxylactic acid was evaluated following the US EPA food contact suspension test protocol (AOAC 960.09) against Salmonella, E. coli, Campylobacter and Listeria according to the conditions set forth in Table 16.

[3] = tested on: Salmonella, E. coli, Campylobacter and Listeria; experiment: Food contact suspension test (AOAC 960.09), FIG. 7; type: cell-based; settings: 30 seconds
Method: as §1
In addition at 100 ppm PLA provides efficacy of greater than 7 log reduction against Listeria, whereas peroxyacetic acid is known to require at least about 180 ppm for greater than 7 log reduction against Listeria.

[4] = tested on: Campylobacter jejuni ATCC 33291; experiment: Food contact suspension test (FCS, AOAC 960.09); type: cell-based; settings: for Avg. Log10 Growth / Log10 Reduction: 30 second; for concentration required for efficacy: 75° F., FIG. 6
Method: Antimicrobial Efficacy of Peroxylactic Acid. The antimicrobial efficacy of generated peroxylactic acid was evaluated following the US EPA food contact suspension test protocol (AOAC 960.09) against Staphylococcus aureus and Escherichia coli according to the conditions set forth in Table 7.
Additional efficacy testing against Campylobacter jejuni ATCC 33291 as described in Table 10 was completed to compare efficacy at 75° F. of lactic acid, peroxylactic acid (PLA) and peroxyacetic acid (PAA). […] In particular, in comparison to lactic acid substantially lower concentrations are required (25 ppm PLA instead of approximately 5000 ppm lactic acid).
Beneficially, the concentration of peroxylactic acid required for micro efficacy are substantially lower than lactic acid and the lactic acid which is formed upon degradation of the peroxylactic acid is further beneficial for micro efficacy.

| SMILES | stability of generated perlactic acid [1] | Avg. Log10 Growth ([2]; 50 ppm PLA) | CFU/mL ([2]; 50 ppm PLA) | Log10 Growth ([2]; 50 ppm PLA) | Log10 Reduction ([2]; 50 ppm PLA) | Avg. Log10 Growth ([2]; 100 ppm PLA) | Log10 Reduction ([2]; 100 ppm PLA) | Avg. Log10 Growth ([2]; 150 ppm PLA) | Log10 Reduction ([2]; 150 ppm PLA) | low concentration dose providing efficacy against various microbes [3] | Avg. Log10 Growth ([4]; 25 ppm PLA) | Log10 Reduction ([4]; 25 ppm PLA) | Avg. Log10 Growth ([4]; 50 ppm PLA) | Log10 Reduction ([4]; 50 ppm PLA) | Avg. Log10 Growth ([4]; 75ppm PLA) | Log10 Reduction ([4]; 75ppm PLA) | concentration required for efficacy [4] |
| --- | --- | --- | --- | --- | --- | --- | --- | --- | --- | --- | --- | --- | --- | --- | --- | --- | --- |
| CC(O)C(=O)OO (stereo not drawn) [PLA, peroxylactic acid] | very unstable | 5.84 Log10 | 6.90E+05 CFU/mL and 6.80E+05 CFU/mL | 5.84 Log10 and 5.83 Log10 | 2.23 Log10 | <1.00 Log10 | >7.06 Log10 | <1.00 Log10 | >7.06 Log10 | 25 ppm | <1.00 Log10 | >7.06 Log10 | <1.00 Log10 | >7.06 Log10 | <1.00 Log10 | >7.06 Log10 | 25 ppm |
| CC(O)C(=O)O (stereo not drawn) [Lactic Acid, reference compound] |  |  |  |  |  |  |  |  |  |  |  |  |  |  |  |  | approximately 5000 ppm |
